# Reference: patent US11066406B2, “Small molecule inhibitors of the JAK family of kinases” (Janssen Pharmaceutica NV, priority 2018, dated 2021)
# Values joined by “and” are separate entries in the source; they are usually repeats but may differ in a detail not shown here. Equal values may be shown once. Marks after values point to notes of the source that are not given here.
# Assays:
# [1] = In vivo p.o. dosing (Protocols 1 and 2): plasma and colon concentrations; set-up: species or system C57BL/6 mice; settings: mice, 25 mg/kg p.o. in 20% HPβCD; for Plasma Concentration After p.o. Dosing, Time = 0.5 h, Mean: 0.5 h post dose; for Plasma Concentration After p.o. Dosing, Time = 2 h, Mean: 2 h post dose; for Plasma Concentration After p.o. Dosing, Time = 4 h, Mean: 4 h post dose; for Colon Concentration After p.o. Dosing, Time = 4 h, Mean: colon 4 h post dose
# Method: These protocols are described below under the heading In vivo Studies.
# (§1) Three non-fasted female C57BL/6 mice were orally administered test compound at a dose of 25 mg/kg p.o. as a solution in 20% hydroxypropyl-beta-cyclodextrin (HPβCD) at a dose volume of 5 mL/kg. Blood samples were collected at 0.5, 2, and 4 h post dose via retro-orbital bleed or venipuncture of the dorsal metatarsal vein. Blood samples were collected into tubes containing anticoagulant (Heparin-Na) and placed on wet ice. The plasma fraction was separated by centrifugation and frozen at −20° C. for up to 4 h and −80° C. after 4 h unless analyzed shortly after sample collection. Colon samples were collected at 4 h post dose. From the beginning of the cecum, a 4-6 cm sample of the colon was dissected, cut open on the longitudinal axis, and the solid contents removed by flushing with 2 mL of saline. The colon was further washed by putting it in 5 mL of saline and shaken for 5 seconds. The colon sample was then patted dry, weighed, and homogenized as 1 part tissue (g) to 4 parts HPLC grade water (mL). Concentrations of the compound in plasma and colon homogenate were determined using a qualified liquid chromatography-triple quadrupole mass spectrometry (LC-MS/MS) method.
# as §1, with “HPβCD” for “hydroxypropyl-beta-cyclodextrin (HPβCD)”, “or” for “or venipuncture of the”, “2 cm below” for “the beginning of”, “4” for “4-6”
# [2] = In vivo intracolonic (i.c.) dosing (Protocol 3): plasma and colon concentrations; set-up: species or system C57BL/6 mice; settings: mice, 5 mg/kg intracolonic in 20% HPβCD; for Plasma Concentration After i.c. Dosing, Time = 2 h, Mean: 2 h post dose; for Plasma Concentration After i.c. Dosing, Time = 4 h, Mean: 4 h post dose
# From the text: Plasma and colon concentration results were obtained by following Protocol 1 using venipuncture of dorsal metatarsal vein bleed for Compounds (B), (C), and Examples 6 and 11. Plasma and colon concentration results were obtained by following Protocol 2 using retro-orbital bleed for Compounds (A), and Examples 1, and 3-5 and Protocol 2 using venipuncture of the dorsal metatarsal vein for Examples 2, 7-10, and 12. Plasma and colon concentration results were obtained by following Protocol 3 for Examples 1, 3 and 4. These protocols are described below under the heading In vivo Studies.
# Intracolonic (IC) dose group: Following anesthesia with isoflurane by inhalation, three non-fasted female C57BL/6 mice were administered the compound intracolonically through a small incision in the abdominal wall using a syringe and needle at a dose of 5 mg/kg as a solution in 20% HPβCD at a dose volume of 1 mL/kg. Blood samples were collected at 0.5, 2, and 4 h post dose via retro-orbital bleed. Blood samples were collected into tubes containing anticoagulant (Heparin-Na) and placed on wet ice. The plasma fraction was separated by centrifugation and frozen at −20° C. for up to 4 h and −80° C. after 4 h unless analyzed shortly after sample collection. Colon samples were collected at 4 h post dose. From 2 cm below the cecum, a 4-cm sample of the colon was dissected, cut open on the longitudinal axis, and the solid contents removed by flushing with 2 mL of saline. The colon was further washed by putting it in 5 mL of saline and shaken for 5 seconds. The colon sample was then patted dry, weighed, and homogenized as 1 part tissue (g) to 4 parts HPLC grade water (mL). Concentrations of the compound in plasma and colon homogenate were determined using a qualified liquid chromatography-triple quadrupole mass spectrometry (LC-MS/MS) method. This protocol was used to evaluate IC dosing of the following test compounds: Examples 1, 3, and 4.
# MDCK-MDR1 cell line = experiment: MDCK-MDR1 permeability assay; type: in vitro ADME; settings: apical-to-basolateral, with P-gp inhibitor elacridar (2 μM), 60 min
# Method: Permeability measurements were conducted according to the Cyprotex protocol using the MDCK-MDR1 cell line obtained from the NIH (Rockville, Md., USA). […] The cells in this assay form a cohesive sheet of a single cell layer filing the surface area of the culture dish, also known as a confluent monolayer, and on day four the test compound was added to the apical side of the membrane and the transport of the compound across the monolayer was monitored over a time period of 60 min.
# Test compounds were dissolved in DMSO at a concentration of 10 mM. The dosing solutions were prepared by diluting test compound with assay buffer (Hanks Balanced Salt Solution), pH 7.4, at a final concentration of 5 μM. For assessment of apical to basolateral (“A-B”) permeability, buffer was removed from the apical compartment and replaced with test compound dosing solution with or without the permeability glycoprotein (“PgP”, “P-gP”, “Pgp” or “P-gp”) inhibitor elacridar (2 μM). For assessment of basolateral to apical (“B-A”) permeability, buffer was removed from the companion plate and replaced with test compound dosing solution. Incubations were carried out in duplicate at 37° C. in an atmosphere of 5% CO2 with a relative humidity of 95%. Each assay included the reference markers propranolol (high permeability) and prazosin (PgP substrate). After incubation for 60 minutes, apical and basolateral samples were diluted and test compounds quantified by LC/MS/MS using an 8-point calibration in the range 0.0039 to 3 μM with appropriate dilution of the samples (receiver dilution factor=1; donor and Co dilution factor=10). The permeability coefficient (Papp) for each compound was calculated from the following equation: Papp=(dQ/dt)/(C0×S), where dQ/dt is the rate of permeation of the drug across the cells, Co is the donor compartment concentration at time zero, and S is the area of the cell monolayer.
# Papp(A-B) gives an indication of permeation extent across the cells in this assay, which is envisaged to model the transcellular transport across Pgp-expressing cells, such as Pgp-expressing gastrointestinal tract cells.
SMILES,"Plasma Concentration After p.o. Dosing, Time = 4 h, Mean [1]",MDCK-MDR1 P^eapp(A-B) @ 5 μM (MDCK-MDR1 cell line),also measured
Cc1nc2cnc3[nH]ccc3c2n1[C@H]1CC[C@H](CC#N)CC1 [A],84.5 ng/mL,,"Plasma Concentration After p.o. Dosing, Time = 0.5 h, Mean [1]: 347.0 ng/mL; Plasma Concentration After p.o. Dosing, Time = 2 h, Mean [1]: 69.1 ng/mL; Colon Concentration After p.o. Dosing, Time = 4 h, Mean [1]: 895.0 ng/g"
N#CC[C@H]1CC[C@H](n2c(CO)nc3cnc4[nH]ccc4c32)CC1 [B],11.3 ng/mL,,"Plasma Concentration After p.o. Dosing, Time = 0.5 h, Mean [1]: 352.7 ng/mL; Plasma Concentration After p.o. Dosing, Time = 2 h, Mean [1]: 66.3 ng/mL; Colon Concentration After p.o. Dosing, Time = 4 h, Mean [1]: 6076.7 ng/g"
C[C@@H](O)c1nc2cnc3[nH]ccc3c2n1[C@H]1CC[C@H](CC#N)CC1 [C],16.7 ng/mL,,"Plasma Concentration After p.o. Dosing, Time = 0.5 h, Mean [1]: 547.0 ng/mL; Plasma Concentration After p.o. Dosing, Time = 2 h, Mean [1]: 130.2 ng/mL; Colon Concentration After p.o. Dosing, Time = 4 h, Mean [1]: 7776.7 ng/g"
"CC(C)(O)CNC(=O)Cc1nc2cnc3[nH]ccc3c2n1[C@H]1CC[C@H](CC#N)CC1 [Ex. 1, 2-(1-((1r,4r)-4-(Cyanomethyl)cyclohexyl)-1,6-dihydroimidazo[4,5-d]pyrrolo[2,3-b]pyridin-2-yl)-N-(2-hydroxy-2-methylpropyl)acetamide]",,,"Plasma Concentration After i.c. Dosing, Time = 2 h, Mean [2]: ^∧; Plasma Concentration After i.c. Dosing, Time = 4 h, Mean [2]: ^∧"
"N#CCC1CCC(n2c(-c3c[nH]cn3)nc3cnc4[nH]ccc4c32)CC1 (stereo not shown) [Ex. 2, 2-((1r,4r)-4-(2-(1H-Imidazol-4-yl)imidazo[4,5-d]pyrrolo[2,3-b]pyridin-1(6H)-yl)cyclohexyl)acetonitrile]",,1.6 10^−6 cm/sec,
"N#CC[C@H]1CC[C@H](n2c(CC(=O)NCC3CC3)nc3cnc4[nH]ccc4c32)CC1 [Ex. 3, 2-(1-((1r,4r)-4-(Cyanomethyl)cyclohexyl)-1,6-dihydroimidazo[4,5-d]pyrrolo[2,3-b]pyridin-2-yl)-N-(cyclopropylmethyl)acetamide]",,2.3 10^−6 cm/sec and 1.6 10^−6 cm/sec,"Plasma Concentration After i.c. Dosing, Time = 2 h, Mean [2]: ^∧; Plasma Concentration After i.c. Dosing, Time = 4 h, Mean [2]: ^∧"
"N#CCCNC(=O)Cc1nc2cnc3[nH]ccc3c2n1[C@H]1CC[C@H](CC#N)CC1 [Ex. 4, N-(2-Cyanoethyl)-2-(1-((1r,4r)-4-(cyanomethyl)cyclohexyl)-1,6-dihydroimidazo[4,5-d]pyrrolo[2,3-b]pyridin-2-yl)acetamide]",,0.5 10^−6 cm/sec,"Plasma Concentration After i.c. Dosing, Time = 4 h, Mean [2]: ^∧"
"N#CC[C@H]1CC[C@H](n2c(CC(=O)NC3CCOCC3)nc3cnc4[nH]ccc4c32)CC1 [Ex. 5, 2-(1-((1r,4r)-4-(cyanomethyl)cyclohexyl)-1,6-dihydroimidazo[4,5-d]pyrrolo[2,3-b]pyridin-2-yl)-N-(tetrahydro-2H-pyran-4-yl)acetamide]",,0.7 10^−6 cm/sec and 0.5 10^−6 cm/sec,
"N#CC[C@H]1CC[C@H](n2c(CC(=O)NCC3CCOCC3)nc3cnc4[nH]ccc4c32)CC1 [Ex. 6, 2-(1-((1r,4r)-4-(Cyanomethyl)cyclohexyl)-1,6-dihydroimidazo[4,5-d]pyrrolo[2,3-b]pyridin-2-yl)-N-((tetrahydro-2H-pyran-4-yl)methyl)acetamide]",1.7^# ng/mL,0.9 10^−6 cm/sec and 1.1 10^−6 cm/sec,
"CC(C)(C#N)CNC(=O)Cc1nc2cnc3[nH]ccc3c2n1[C@H]1CC[C@H](CC#N)CC1 [Ex. 7, N-(2-Cyano-2-methylpropyl)-2-(1-((1r,4r)-4-(cyanomethyl)cyclohexyl)-1,6-dihydroimidazo[4,5-d]pyrrolo[2,3-b]pyridin-2-yl)acetamide]",,1.2 10^−6 cm/sec,
"N#CC[C@H]1CC[C@H](n2c(CC(=O)NCC3(O)CCC3)nc3cnc4[nH]ccc4c32)CC1 [Ex. 8, 2-(1-((1r,4r)-4-(Cyanomethyl)cyclohexyl)-1,6-dihydroimidazo[4,5-d]pyrrolo[2,3-b]pyridin-2-yl)-N-((1-hydroxycyclobutyl)methyl)acetamide]",,0.5 10^−6 cm/sec,
"Cn1cc(NC(=O)Cc2nc3cnc4[nH]ccc4c3n2[C@H]2CC[C@H](CC#N)CC2)cn1 [Ex. 9, 2-(1-((1r,4r)-4-(Cyanomethyl)cyclohexyl)-1,6-dihydroimidazo[4,5-d]pyrrolo[2,3-b]pyridin-2-yl)-N-(1-methyl-1H-pyrazol-4-yl)acetamide]",,0.6 10^−6 cm/sec,
"N#CCC12CCC(NC(=O)Cc3nc4cnc5[nH]ccc5c4n3[C@H]3CC[C@H](CC#N)CC3)(CC1)C2 [Ex. 10, N-(4-(Cyanomethyl)bicyclo[2.2.1]heptan-1-yl)-2-(1-((1r,4r)-4-(cyanomethyl)cyclohexyl)-1,6-dihydroimidazo[4,5-d]pyrrolo[2,3-b]pyridin-2-yl)acetamide]",,1.1 10^−6 cm/sec,
"N#CC[C@H]1CC[C@H](n2c(CC(=O)Nc3cc[nH]n3)nc3cnc4[nH]ccc4c32)CC1 [Ex. 11, 2-(1-((1r,4r)-4-(Cyanomethyl)cyclohexyl)-1,6-dihydroimidazo[4,5-d]pyrrolo[2,3-b]pyridin-2-yl)-N-(1H-pyrazol-3-yl)acetamide]",^∧,0.8 10^−6 cm/sec,"Plasma Concentration After p.o. Dosing, Time = 2 h, Mean [1]: ^∧"
"N#CC[C@H]1CC[C@H](n2c(CC(=O)NCC3(O)CC3)nc3cnc4[nH]ccc4c32)CC1 [Ex. 12, 2-(1-((1r,4r)-4-(Cyanomethyl)cyclohexyl)-1,6-dihydroimidazo[4,5-d]pyrrolo[2,3-b]pyridin-2-yl)-N-((1-hydroxycyclopropyl)methyl)acetamide]",,0.6 10^−6 cm/sec,
